In patent US8927500B2, “Peptidomimetic macrocycles” (Aileron Therapeutics, Inc., priority 2012, dated 2015):
pIC50, pKi: −log10 of the molar value. Like-named read-outs stand apart in the source and are kept apart here. Where a SMILES comes first, the peptide text is derived from it. Bridges are numbered along the chain shown (N, C = ends). [ ]: non-standard residue; d: D form. R8 = C=CCCCCCC[C@@](C)(N)C(=O)O; Cba = N[C@@H](CC1CCC1)C(=O)O; S5 = C=CCCC[C@](C)(N)C(=O)O

Assays:
MDM2 = MDM2 (Homo sapiens, UniProt Q00987); experiment: Competitive fluorescence polarization assay for MDM2; assay type: binding; conditions: competitive FP assay, MDM2; for pIC50: read-out: IC50 (MDM2)
MDMX = target: T1, MDMX (Homo sapiens, UniProt O15151); experiment: Competitive fluorescence polarization assay for MDMX; assay type: binding; conditions: competitive FP assay; for pIC50: read-out: IC50 (MDMX); for pKi: read-out: Ki (MDMX)
T1 sequence (O15151 1-125): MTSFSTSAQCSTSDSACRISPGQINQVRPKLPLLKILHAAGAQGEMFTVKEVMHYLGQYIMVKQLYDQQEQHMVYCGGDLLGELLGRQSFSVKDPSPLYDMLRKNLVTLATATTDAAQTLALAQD

Sequence of MDM2 (Q00987 1-125): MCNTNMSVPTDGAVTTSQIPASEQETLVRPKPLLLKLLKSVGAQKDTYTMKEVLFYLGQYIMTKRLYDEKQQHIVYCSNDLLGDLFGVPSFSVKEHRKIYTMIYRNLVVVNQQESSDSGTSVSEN

SMILES	pIC50 (MDM2)	pKi (MDM2; read-out: Ki (MDM2))	pIC50 (MDMX)	pKi (MDMX)	pKi (MDM2; Ki (MDM2))
CC(=O)N[C@@H](CC(C)C)C(=O)N[C@H](C(=O)N[C@@H](Cc1ccccc1)C(=O)N[C@]1(C)CCCCCCC=CCCC[C@@](C)(C(=O)N[C@@H](C)C(=O)N[C@@H](C)C(=O)NC(C)(C)C(=O)N[C@H](C(N)=O)C(C)C)NC(=O)[C@H](CC(C)C)NC(=O)[C@H](CCC(N)=O)NC(=O)[C@H](C)NC(=O)[C@H](Cc2c[nH]c3ccccc23)NC(=O)[C@H](Cc2ccc(O)cc2)NC(=O)[C@H](C)NC1=O)[C@@H](C)O (single isomer, unassigned) [compound 23]	6.00 to 7.00	7.00 to 8.00	–	–	–
CC(=O)N[C@@H](CC(C)C)C(=O)N[C@H](C(=O)N[C@@H](Cc1ccc(F)c(F)c1)C(=O)N[C@]1(C)CCCCCCC=CCCC[C@@](C)(C(=O)N[C@@H](CO)C(=O)N[C@@H](C)C(=O)N[C@@H](C)C(N)=O)NC(=O)[C@H](CC2CCC2)NC(=O)[C@H](CCC(N)=O)NC(=O)[C@H](C)NC(=O)[C@H](Cc2c[nH]c3ccccc23)NC(=O)[C@H](Cc2ccc(O)cc2)NC(=O)[C@H](CCC(=O)O)NC1=O)[C@@H](C)O (single isomer, unassigned) [compound 289]	–	–	7.00 to 8.00	7.00 to 8.00	–
CCCC[C@H](NC(=O)C(C)(C)NC(=O)[C@H](C)NC(=O)[C@]1(C)CCCC=CCCCCCC[C@@](C)(NC(=O)[C@H](Cc2ccccc2)NC(=O)[C@@H](NC(=O)[C@H](CC(C)C)NC(C)=O)[C@@H](C)O)C(=O)N[C@@H](C)C(=O)N[C@@H](Cc2ccc(O)cc2)C(=O)N[C@@H](Cc2c[nH]c3ccccc23)C(=O)N[C@@H](C)C(=O)N[C@@H](CCC(N)=O)C(=O)N[C@@H](CC(C)C)C(=O)N1)C(=O)N[C@@H](C)C(N)=O (single isomer, unassigned) [compound 392]	7.00 to 8.00	> 8.00	–	–	–
CCCC[C@H](NC(=O)CN(C)C(=O)[C@H](C)NC(=O)[C@]1(C)CCCC=CCCCCCC[C@@](C)(NC(=O)[C@H](Cc2ccccc2)NC(=O)[C@@H](NC(=O)[C@H](CC(C)C)NC(C)=O)[C@@H](C)O)C(=O)N[C@@H](C)C(=O)N[C@@H](Cc2ccc(O)cc2)C(=O)N[C@@H](Cc2c[nH]c3ccccc23)C(=O)N[C@@H](C)C(=O)N[C@@H](CCC(N)=O)C(=O)N[C@@H](CC(C)C)C(=O)N1)C(=O)N[C@@H](C)C(N)=O (single isomer, unassigned) [compound 396]	> 8.00	> 8.00	–	–	–
CCCCCCCCCC(=O)N[C@@H](CC(C)C)C(=O)N[C@H](C(=O)N[C@@H](Cc1ccccc1)C(=O)N[C@]1(C)CCCCCCC=CCCC[C@@](C)(C(=O)N[C@@H](CO)C(=O)N[C@@H](C)C(=O)N[C@@H](C)C(N)=O)NC(=O)[C@H](CCC(C)C)NC(=O)[C@H](CCC(N)=O)NC(=O)[C@H](C)NC(=O)[C@H](Cc2c[nH]c3ccccc23)NC(=O)[C@H](Cc2ccc(O)cc2)NC(=O)[C@H](CCC(=O)O)NC1=O)[C@@H](C)O [compound 282]	–	–	< 6.00	< 6.00	–
CC(=O)N[C@@H](CC(C)C)C(=O)N[C@H](C(=O)N[C@@H](Cc1ccccc1)C(=O)N[C@]1(C)CCCCCCC=CCCC[C@@](C)(C(=O)N[C@@H](CO)C(=O)N[C@@H](C)C(=O)N[C@@H](C)C(N)=O)NC(=O)[C@H](CC2CCC2)NC(=O)[C@H](CCC(N)=O)NC(=O)[C@H](C)NC(=O)[C@H](Cc2c[nH]c3cc(Cl)ccc23)NC(=O)[C@H](Cc2ccc(O)cc2)NC(=O)[C@H](CCC(=O)O)NC1=O)[C@@H](C)O [compound 332]	–	–	7.00 to 8.00	> 8.00	–
CC(C)C[C@H](NC(=O)CN(C)C)C(=O)N[C@H](C(=O)N[C@@H](Cc1ccccc1)C(=O)N[C@]1(C)CCCCCCC=CCCC[C@@](C)(C(=O)N[C@@H](CO)C(=O)N[C@@H](C)C(=O)N[C@@H](C)C(N)=O)NC(=O)[C@H](CC2CCC2)NC(=O)[C@H](CCC(N)=O)NC(=O)[C@H](C)NC(=O)[C@H](Cc2c[nH]c3ccccc23)NC(=O)[C@H](Cc2ccc(O)cc2)NC(=O)[C@H](CCC(=O)O)NC1=O)[C@@H](C)O [compound 435]	–	–	7.00 to 8.00	> 8.00	–
CC(=O)N[C@@H](CC(C)C)C(=O)N[C@H](C(=O)N[C@@H](Cc1ccccc1)C(=O)N[C@]1(C)CCCCCCC=CCCC[C@@](C)(C(=O)N[C@H](C)C(N)=O)NC(=O)[C@H](CC(C)C)NC(=O)[C@H](CCC(N)=O)NC(=O)[C@H](C)NC(=O)[C@H](Cc2c[nH]c3ccccc23)NC(=O)[C@H](Cc2ccc(O)cc2)NC(=O)[C@H](CCC(=O)O)NC1=O)[C@@H](C)O [compound 589] (Ac-LTF[R8]EYWAQL[S5][dA]-NH2; staple 4-11)	–	–	–	–	> 8.00
CC(=O)N[C@@H](CC(C)C)C(=O)N[C@H](C(=O)N[C@@H](Cc1ccccc1)C(=O)N[C@]1(C)CCCCCCC=CCCC[C@@](C)(C(=O)N[C@@H](CO)C(N)=O)NC(=O)[C@H](CC2CCC2)NC(=O)[C@H](CCC(N)=O)NC(=O)[C@H](C)NC(=O)[C@H](Cc2c[nH]c3ccccc23)NC(=O)[C@H](Cc2ccc(O)cc2)NC(=O)[C@H](CCC(=O)O)NC1=O)[C@@H](C)O [compound 595] (Ac-LTF[R8]EYWAQ[Cba][S5]S-NH2; staple 4-11)	–	< 6.00	–	–	–
CC(C)C[C@H](NC(=O)c1ccc(F)cc1)C(=O)N[C@H](C(=O)N[C@@H](Cc1ccccc1)C(=O)N[C@]1(C)CCCCCCC=CCCC[C@@](C)(C(=O)N[C@@H](CO)C(=O)N[C@@H](C)C(=O)N[C@@H](C)C(N)=O)NC(=O)[C@H](CC2CCC2)NC(=O)[C@H](CCC(N)=O)NC(=O)[C@H](C)NC(=O)[C@H](Cc2c[nH]c3ccccc23)NC(=O)[C@H](Cc2ccc(O)cc2)NC(=O)[C@H](CCC(=O)O)NC1=O)[C@@H](C)O [compound 597]	–	–	–	7.00 to 8.00	–
CC(C)C[C@H](NC(=O)CCNC(=O)c1ccc2c(c1)C(=O)OC21c2ccc(N(C)C)cc2Oc2cc(N(C)C)ccc21)C(=O)N[C@H](C(=O)N[C@@H](Cc1ccccc1)C(=O)N[C@]1(C)CCCCCCC=CCCC[C@@](C)(C(=O)N[C@@H](CO)C(=O)N[C@@H](C)C(=O)N[C@@H](C)C(N)=O)NC(=O)[C@H](CC2CCC2)NC(=O)[C@H](CCC(N)=O)NC(=O)[C@H](C)NC(=O)[C@H](Cc2c[nH]c3ccccc23)NC(=O)[C@H](Cc2ccc(O)cc2)NC(=O)[C@H](CCC(=O)O)NC1=O)[C@@H](C)O [compound 686]	–	–	–	7.00 to 8.00	–

More lines, main results first:

pIC50 (MDM2)	pKi (MDM2; read-out: Ki (MDM2))	pIC50 (MDMX)	pKi (MDMX)	SMILES	pKi (MDM2; Ki (MDM2))
7.00 to 8.00	> 8.00	–	–	CC(=O)N[C@@H](CC(C)C)C(=O)N[C@H](C(=O)N[C@@H](Cc1ccccc1)C(=O)N[C@]1(C)CCCCCCC=CCCC[C@@](C)(C(=O)N[C@@H](C)C(=O)N[C@@H](C)C(=O)NC(C)(C)C(=O)N[C@H](C(N)=O)C(C)C)NC(=O)[C@H](CC(C)C)NC(=O)[C@H](CCC(N)=O)NC(=O)[C@H](C)NC(=O)[C@H](Cc2c[nH]c3ccccc23)NC(=O)[C@H](Cc2ccc(O)cc2)NC(=O)[C@H](C)NC1=O)[C@@H](C)O (single isomer, unassigned) [compound 24]	–
6.00 to 7.00	7.00 to 8.00	6.00 to 7.00	7.00 to 8.00	CCCC[C@H](NC(=O)[C@H](C)NC(=O)[C@H](C)NC(=O)[C@]1(C)CCCC=CCCCCCC[C@@](C)(NC(=O)[C@H](Cc2ccccc2)NC(=O)[C@@H](NC(=O)[C@H](CC(C)C)NC(C)=O)[C@@H](C)O)C(=O)N[C@@H](C)C(=O)N[C@@H](Cc2ccc(O)cc2)C(=O)N[C@@H](Cc2c[nH]c3ccccc23)C(=O)N[C@@H](C)C(=O)N[C@@H](CCC(N)=O)C(=O)N[C@@H](CC(C)C)C(=O)N1)C(=O)N[C@@H](C)C(N)=O (single isomer, unassigned) [compound 68]	–
–	–	6.00 to 7.00	7.00 to 8.00	CC(=O)N[C@@H](CC(C)C)C(=O)N[C@H](C(=O)N[C@@H](Cc1ccccc1)C(=O)N[C@]1(C)CCCCCCC=CCCC[C@@](C)(C(=O)N[C@@H](C)C(=O)N[C@@H](C)C(=O)N[C@@H](C)C(=O)N[C@@H](C)C(=O)N[C@H](C)C(N)=O)NC(=O)[C@H](CCC(C)C)NC(=O)[C@H](CCC(N)=O)NC(=O)[C@H](C)NC(=O)[C@H](Cc2c[nH]c3ccccc23)NC(=O)[C@H](Cc2ccc(O)cc2)NC(=O)[C@H](C)NC1=O)[C@@H](C)O (single isomer, unassigned) [compound 313]	–
–	–	7.00 to 8.00	> 8.00	CC(=O)N[C@@H](CC(C)C)C(=O)N[C@H](C(=O)N[C@@H](Cc1ccccc1)C(=O)N[C@]1(C)CCCCCCC=CCCC[C@@](C)(C(=O)N[C@@H](C)C(=O)N[C@@H](C)C(=O)N[C@@H](C)C(=O)N[C@@H](C)C(=O)N[C@H](C)C(N)=O)NC(=O)[C@H](CCC(C)C)NC(=O)[C@H](CCC(N)=O)NC(=O)[C@H](C)NC(=O)[C@H](Cc2c[nH]c3ccccc23)NC(=O)[C@H](Cc2ccc(O)cc2)NC(=O)[C@H](C)NC1=O)[C@@H](C)O (single isomer, unassigned) [compound 314]	–
–	7.00 to 8.00	–	–	CC(=O)N[C@@H](CC(C)C)C(=O)N[C@H](C(=O)N[C@@H](Cc1ccccc1)C(=O)N[C@]1(C)CCCCCCC=CCCC[C@@](C)(C(=O)N[C@@H](C)C(=O)N[C@@H](C)C(=O)N[C@@H](C)C(=O)N[C@@H](C)C(=O)NC(C)(C)C(=O)N[C@H](C)C(N)=O)NC(=O)[C@H](CC(C)C)NC(=O)[C@H](CCC(N)=O)NC(=O)[C@H](C)NC(=O)[C@H](Cc2c[nH]c3ccccc23)NC(=O)[C@H](Cc2ccc(O)cc2)NC(=O)[C@H](CCC(=O)O)NC1=O)[C@@H](C)O (single isomer, unassigned) [compound 565]	–
–	> 8.00	–	–	CC(=O)N[C@@H](CC(C)C)C(=O)N[C@H](C(=O)N[C@@H](Cc1ccccc1)C(=O)N[C@]1(C)CCCCCCC=CCCC[C@@](C)(C(=O)N[C@@H](C)C(=O)N[C@@H](C)C(=O)N[C@@H](C)C(=O)N[C@@H](C)C(=O)NC(C)(C)C(=O)N[C@H](C)C(N)=O)NC(=O)[C@H](CC(C)C)NC(=O)[C@H](CCC(N)=O)NC(=O)[C@H](C)NC(=O)[C@H](Cc2c[nH]c3ccccc23)NC(=O)[C@H](Cc2ccc(O)cc2)NC(=O)[C@H](CCC(=O)O)NC1=O)[C@@H](C)O (single isomer, unassigned) [compound 566]	–
